Test results from ChEMBL document CHEMBL1146287, “New carbon-linked azole oxazolidinones with improved potency and pharmacokinetics” (Bioorg Med Chem Lett, 2007).
In brackets after ≈: the same amount, converted by molar mass.

Tests used:
Haemophilus influenzae = assay: Antimicrobial activity against Haemophilus influenzae by broth dilution method; assay type: functional
[1] = target: T1, Amine oxidase [flavin-containing] A (Homo sapiens, UniProt P21397); assay: Inhibition human liver MAOA activity
T1 sequence (P21397 whole entry): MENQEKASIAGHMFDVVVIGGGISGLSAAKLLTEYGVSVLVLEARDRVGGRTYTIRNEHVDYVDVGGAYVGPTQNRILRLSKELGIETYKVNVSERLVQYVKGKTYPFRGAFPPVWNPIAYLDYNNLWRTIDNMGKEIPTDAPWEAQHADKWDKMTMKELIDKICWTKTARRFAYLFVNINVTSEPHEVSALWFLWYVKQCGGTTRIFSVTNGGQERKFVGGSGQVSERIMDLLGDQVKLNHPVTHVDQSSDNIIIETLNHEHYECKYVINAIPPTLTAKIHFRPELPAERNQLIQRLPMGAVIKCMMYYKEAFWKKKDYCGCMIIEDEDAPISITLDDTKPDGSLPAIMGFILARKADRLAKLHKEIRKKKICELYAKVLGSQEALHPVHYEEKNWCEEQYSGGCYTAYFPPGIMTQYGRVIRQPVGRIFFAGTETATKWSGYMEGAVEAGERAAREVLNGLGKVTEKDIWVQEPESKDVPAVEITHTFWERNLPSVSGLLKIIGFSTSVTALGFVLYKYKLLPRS

Mus musculus = assay: Antibacterial activity against Streptococcus pneumoniae ARC548 infected C57BL/6 mouse lung at 25 mg/kg, po after 2 days relative to Linezolid; assay type: functional
Staphylococcus aureus = assay: Antimicrobial activity against staphylococcus aureus by broth dilution method; assay type: functional
Streptococcus pneumoniae = assay: Antimicrobial activity against streptococcus pneumoniae by broth dilution method; assay type: functional
[2] = Plasma clearance in rat; assay type: ADME, organism-based
[3] = Volume of distribution in rat; assay type: ADME, organism-based; conditions: in vivo, read-out: Vss
[4] = Half life in rat; assay type: ADME, organism-based; conditions: in vivo
[5] = Oral bioavailability in rat at 40 mg/kg; assay type: ADME, organism-based; conditions: in vivo

Row | Structure (SMILES) | MIC (Haemophilus influenzae) | Ki [1] | Lung antibacterial activity relative to linezolid (Mus musculus) | MIC (Staphylococcus aureus) | MIC (Streptococcus pneumoniae) | clearance [2] | Vd [3] | half-life [4] | bioavailability [5]
1 | CC(=O)NC[C@H]1CN(c2ccc(N3CCOCC3)c(F)c2)C(=O)O1 [LINEZOLID] | 8 µg/mL (≈ 23.7 µM) | 20 µmol | 75% |  |  |  |  |  | 
2 | Cn1cc(-c2ccc(N3C[C@H](Cn4ccnn4)OC3=O)cc2F)nn1 | > 64 µg/mL |  |  | 32 µg/mL (≈ 93.2 µM) | 16 µg/mL (≈ 46.6 µM) |  |  |  | 
3 | Cc1cc(-c2ccc(N3C[C@H](Cn4ccnn4)OC3=O)cc2F)on1 | 8 µg/mL (≈ 23.3 µM) | 2.9 µmol | 92% | 0.5 µg/mL (≈ 1.46 µM) | 0.25 µg/mL (≈ 0.728 µM) | 5 mL/min/kg | 0.6 L/kg | 1.7 h | 82%
4 | O=C1O[C@@H](Cn2ccnn2)CN1c1ccc(-c2c[nH]nn2)c(F)c1 | > 64 µg/mL |  |  | 64 µg/mL (≈ 194 µM) | 32 µg/mL (≈ 97.2 µM) |  |  |  | 
5 | N#CCn1cc(-c2ccc(N3C[C@H](Cn4ccnn4)OC3=O)cc2F)nn1 | 32 µg/mL (≈ 86.9 µM) |  |  | 4 µg/mL (≈ 10.9 µM) | 2 µg/mL (≈ 5.43 µM) |  |  |  | 
6 | CC(=O)NC[C@H]1CN(c2ccc(-c3cc(C)no3)c(F)c2)C(=O)O1 | 4 µg/mL (≈ 12 µM) | 0.95 µmol | 22% | 0.5 µg/mL (≈ 1.5 µM) | 0.25 µg/mL (≈ 0.75 µM) |  |  |  | 
7 | O=C1O[C@@H](CNc2ccon2)CN1c1ccc(-c2c[nH]nn2)c(F)c1 | 16 µg/mL (≈ 46.5 µM) |  |  | 8 µg/mL (≈ 23.2 µM) | 16 µg/mL (≈ 46.5 µM) |  |  |  | 
8 | Cc1cn(C[C@H]2CN(c3ccc(-c4cc(C)no4)c(F)c3)C(=O)O2)nn1 | 4 µg/mL (≈ 11.2 µM) | 22.6 µmol |  | 0.5 µg/mL (≈ 1.4 µM) | 0.25 µg/mL (≈ 0.7 µM) | 5 mL/min/kg | 0.5 L/kg | 1.2 h | 87%
9 | CC(=O)NC[C@H]1CN(c2ccc(-c3c[nH]nn3)c(F)c2)C(=O)O1 | 8 µg/mL (≈ 25.1 µM) |  |  | 4 µg/mL (≈ 12.5 µM) | 2 µg/mL (≈ 6.26 µM) |  |  |  | 
10 | Cc1cc(-c2ccc(N3C[C@H](CNc4ccon4)OC3=O)cc2F)on1 | 16 µg/mL (≈ 44.7 µM) | 0.42 µmol | 33% | 0.5 µg/mL (≈ 1.4 µM) | 0.25 µg/mL (≈ 0.698 µM) |  |  |  | 
